Assay results reported in article PMC8800111 (The Journal of Biological Chemistry, 2021).
Like-named read-outs stand apart in the source and are kept apart here.

Assays:
Format in all cases: cell-based
[1] = molecular target: proteins of U3A human fibrosarcoma cells (4462 proteins detected) (Homo sapiens, UniProt O00159); details: protein MYO1C, U3A cells
[2] = molecular target: proteins of U3A human fibrosarcoma cells (4462 proteins detected) (Homo sapiens, UniProt O43427); details: protein FIBP; soluble abundance after heat, U3A cells
[3] = molecular target: proteins of U3A human fibrosarcoma cells (4462 proteins detected) (Homo sapiens, UniProt O43683); details: protein BUB1; U3A cells
[4] = molecular target: proteins of U3A human fibrosarcoma cells (4462 proteins detected) (Homo sapiens, UniProt P20700); details: protein LMNB1; soluble abundance after heat, U3A cells
[5] = molecular target: proteins of U3A human fibrosarcoma cells (4462 proteins detected) (Homo sapiens, UniProt P21266); details: protein GSTM3, U3A cells
[6] = molecular target: proteins of U3A human fibrosarcoma cells (4462 proteins detected) (Homo sapiens, UniProt P26440); details: protein IVD, U3A cells
[7] = molecular target: proteins of U3A human fibrosarcoma cells (4462 proteins detected) (Homo sapiens, UniProt P30419); details: protein NMT1, U3A cells
[8] = molecular target: proteins of U3A human fibrosarcoma cells (4462 proteins detected) (Homo sapiens, UniProt P31949); details: protein S100A11, U3A cells
[9] = molecular target: proteins of U3A human fibrosarcoma cells (4462 proteins detected) (Homo sapiens, UniProt P35249); details: protein RFC4; U3A, 10 μM, 2 h
Sequence of proteins of U3A human fibrosarcoma cells (4462 proteins detected) (Homo sapiens, UniProt P35249) (P35249 whole entry): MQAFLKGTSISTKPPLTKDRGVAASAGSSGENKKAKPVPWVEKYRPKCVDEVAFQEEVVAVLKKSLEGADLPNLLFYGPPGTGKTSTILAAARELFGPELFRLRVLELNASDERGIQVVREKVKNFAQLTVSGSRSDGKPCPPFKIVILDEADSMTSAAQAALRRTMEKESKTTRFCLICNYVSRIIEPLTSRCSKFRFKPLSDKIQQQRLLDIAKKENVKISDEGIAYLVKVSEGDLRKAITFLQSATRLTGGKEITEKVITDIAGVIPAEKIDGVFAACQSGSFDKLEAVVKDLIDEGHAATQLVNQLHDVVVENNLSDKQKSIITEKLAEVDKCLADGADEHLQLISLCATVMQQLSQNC

[10] = molecular target: proteins of U3A human fibrosarcoma cells (4462 proteins detected) (Homo sapiens, UniProt P38919); details: protein EIF4A3; soluble abundance after heat, U3A cells
Sequence of proteins of U3A human fibrosarcoma cells (4462 proteins detected) (Homo sapiens, UniProt P38919) (P38919 whole entry): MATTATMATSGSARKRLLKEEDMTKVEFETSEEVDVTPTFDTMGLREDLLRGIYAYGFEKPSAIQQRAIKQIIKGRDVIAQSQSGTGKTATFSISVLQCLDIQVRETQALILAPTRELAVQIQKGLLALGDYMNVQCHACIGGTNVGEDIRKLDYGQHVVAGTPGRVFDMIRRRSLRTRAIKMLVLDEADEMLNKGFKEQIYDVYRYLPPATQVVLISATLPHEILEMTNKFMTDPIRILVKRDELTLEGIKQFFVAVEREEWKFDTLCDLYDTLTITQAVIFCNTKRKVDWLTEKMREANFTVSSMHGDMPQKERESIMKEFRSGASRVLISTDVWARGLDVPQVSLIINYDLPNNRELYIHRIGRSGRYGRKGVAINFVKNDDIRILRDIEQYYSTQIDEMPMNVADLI

[11] = molecular target: proteins of U3A human fibrosarcoma cells (4462 proteins detected) (Homo sapiens, UniProt P46939); details: protein UTRN; soluble abundance after heat, U3A cells
Sequence of proteins of U3A human fibrosarcoma cells (4462 proteins detected) (Homo sapiens, UniProt P46939) (P46939 whole entry): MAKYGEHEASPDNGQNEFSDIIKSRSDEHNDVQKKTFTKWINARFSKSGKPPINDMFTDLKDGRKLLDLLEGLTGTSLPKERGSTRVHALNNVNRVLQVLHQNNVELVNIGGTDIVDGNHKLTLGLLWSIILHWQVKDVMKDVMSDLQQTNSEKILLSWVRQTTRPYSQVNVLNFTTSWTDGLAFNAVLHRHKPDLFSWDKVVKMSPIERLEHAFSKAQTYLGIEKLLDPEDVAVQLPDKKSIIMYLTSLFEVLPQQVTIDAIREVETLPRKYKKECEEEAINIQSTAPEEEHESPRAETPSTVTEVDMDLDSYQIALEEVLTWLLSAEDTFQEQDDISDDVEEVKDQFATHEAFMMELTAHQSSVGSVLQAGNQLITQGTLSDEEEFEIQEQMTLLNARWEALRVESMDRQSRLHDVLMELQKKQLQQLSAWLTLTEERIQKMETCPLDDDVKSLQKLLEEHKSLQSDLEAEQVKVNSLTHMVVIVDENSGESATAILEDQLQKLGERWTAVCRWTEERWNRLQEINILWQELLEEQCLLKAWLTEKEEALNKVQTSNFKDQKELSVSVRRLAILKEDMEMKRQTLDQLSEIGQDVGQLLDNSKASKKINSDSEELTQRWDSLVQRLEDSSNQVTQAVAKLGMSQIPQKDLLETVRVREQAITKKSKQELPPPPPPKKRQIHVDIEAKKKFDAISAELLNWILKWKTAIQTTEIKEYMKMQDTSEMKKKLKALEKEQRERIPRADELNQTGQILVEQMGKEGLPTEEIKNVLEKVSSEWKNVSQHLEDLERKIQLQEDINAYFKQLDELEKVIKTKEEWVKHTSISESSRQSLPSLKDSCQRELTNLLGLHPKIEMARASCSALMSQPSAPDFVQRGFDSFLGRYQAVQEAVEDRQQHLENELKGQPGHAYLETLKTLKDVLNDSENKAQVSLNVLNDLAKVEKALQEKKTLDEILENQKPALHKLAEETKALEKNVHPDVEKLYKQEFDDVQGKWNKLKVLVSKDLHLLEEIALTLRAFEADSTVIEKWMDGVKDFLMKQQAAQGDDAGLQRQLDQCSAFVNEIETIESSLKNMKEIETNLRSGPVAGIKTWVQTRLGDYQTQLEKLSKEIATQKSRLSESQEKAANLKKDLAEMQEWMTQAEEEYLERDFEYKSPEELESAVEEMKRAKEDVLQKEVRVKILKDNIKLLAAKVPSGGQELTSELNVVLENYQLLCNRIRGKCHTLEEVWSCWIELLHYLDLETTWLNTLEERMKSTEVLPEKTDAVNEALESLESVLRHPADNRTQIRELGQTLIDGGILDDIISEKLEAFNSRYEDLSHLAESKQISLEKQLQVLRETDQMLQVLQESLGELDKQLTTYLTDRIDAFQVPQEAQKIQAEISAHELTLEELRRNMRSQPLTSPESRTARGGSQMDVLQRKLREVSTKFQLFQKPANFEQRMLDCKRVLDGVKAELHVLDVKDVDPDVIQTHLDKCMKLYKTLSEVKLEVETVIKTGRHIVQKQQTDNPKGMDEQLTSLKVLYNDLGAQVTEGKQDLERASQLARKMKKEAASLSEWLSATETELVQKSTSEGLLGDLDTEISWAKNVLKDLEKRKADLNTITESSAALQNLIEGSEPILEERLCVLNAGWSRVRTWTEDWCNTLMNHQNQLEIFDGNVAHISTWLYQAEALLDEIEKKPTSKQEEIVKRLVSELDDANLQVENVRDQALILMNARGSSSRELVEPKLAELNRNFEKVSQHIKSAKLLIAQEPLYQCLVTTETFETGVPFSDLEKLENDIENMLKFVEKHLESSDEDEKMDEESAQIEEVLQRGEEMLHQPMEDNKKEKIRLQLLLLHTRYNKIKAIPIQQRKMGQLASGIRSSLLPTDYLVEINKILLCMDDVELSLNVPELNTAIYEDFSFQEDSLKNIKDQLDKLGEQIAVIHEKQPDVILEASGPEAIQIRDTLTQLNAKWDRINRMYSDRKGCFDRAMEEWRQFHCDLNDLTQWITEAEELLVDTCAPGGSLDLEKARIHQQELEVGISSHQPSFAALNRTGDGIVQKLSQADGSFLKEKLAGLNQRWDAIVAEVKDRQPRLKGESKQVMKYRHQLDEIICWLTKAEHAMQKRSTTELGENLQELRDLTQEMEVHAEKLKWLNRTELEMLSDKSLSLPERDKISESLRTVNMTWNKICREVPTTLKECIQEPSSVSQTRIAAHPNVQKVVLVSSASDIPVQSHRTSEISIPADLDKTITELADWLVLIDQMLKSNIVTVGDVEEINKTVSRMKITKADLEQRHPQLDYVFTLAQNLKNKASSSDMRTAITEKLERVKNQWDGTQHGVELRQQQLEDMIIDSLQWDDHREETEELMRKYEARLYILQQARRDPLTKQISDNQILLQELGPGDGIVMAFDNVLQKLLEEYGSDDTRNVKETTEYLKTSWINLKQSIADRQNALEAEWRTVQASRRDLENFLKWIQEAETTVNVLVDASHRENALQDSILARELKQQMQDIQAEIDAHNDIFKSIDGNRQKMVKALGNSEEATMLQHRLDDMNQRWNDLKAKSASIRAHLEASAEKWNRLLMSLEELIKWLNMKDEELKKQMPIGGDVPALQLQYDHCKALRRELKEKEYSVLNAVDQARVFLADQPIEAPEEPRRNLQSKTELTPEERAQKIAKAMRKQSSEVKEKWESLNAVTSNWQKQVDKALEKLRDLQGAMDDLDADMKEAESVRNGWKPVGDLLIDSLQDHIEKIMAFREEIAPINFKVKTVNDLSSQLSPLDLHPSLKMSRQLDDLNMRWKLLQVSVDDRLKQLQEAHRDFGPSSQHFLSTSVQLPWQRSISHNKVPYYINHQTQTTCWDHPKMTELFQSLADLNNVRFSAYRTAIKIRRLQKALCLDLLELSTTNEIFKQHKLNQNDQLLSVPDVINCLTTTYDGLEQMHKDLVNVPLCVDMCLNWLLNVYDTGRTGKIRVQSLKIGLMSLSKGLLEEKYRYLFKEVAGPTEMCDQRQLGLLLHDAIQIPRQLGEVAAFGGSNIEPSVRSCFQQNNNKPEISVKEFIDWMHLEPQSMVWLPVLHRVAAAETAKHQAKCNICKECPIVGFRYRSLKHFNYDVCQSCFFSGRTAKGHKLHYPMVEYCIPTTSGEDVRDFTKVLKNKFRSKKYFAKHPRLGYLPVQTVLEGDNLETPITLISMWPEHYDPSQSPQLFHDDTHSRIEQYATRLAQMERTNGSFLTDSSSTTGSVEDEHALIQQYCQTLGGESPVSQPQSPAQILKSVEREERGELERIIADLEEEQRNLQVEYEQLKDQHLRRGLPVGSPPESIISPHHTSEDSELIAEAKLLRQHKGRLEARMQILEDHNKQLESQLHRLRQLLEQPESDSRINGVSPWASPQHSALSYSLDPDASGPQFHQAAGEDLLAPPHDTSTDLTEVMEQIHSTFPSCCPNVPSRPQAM

[12] = molecular target: proteins of U3A human fibrosarcoma cells (4462 proteins detected) (Homo sapiens, UniProt P62993); details: protein GRB2, U3A cells
[13] = molecular target: proteins of U3A human fibrosarcoma cells (4462 proteins detected) (Homo sapiens, UniProt P78316); details: protein NOP14; U3A cells
[14] = molecular target: proteins of U3A human fibrosarcoma cells (4462 proteins detected) (Homo sapiens, UniProt Q4J6C6); details: protein PREPL, U3A cells
[15] = molecular target: proteins of U3A human fibrosarcoma cells (4462 proteins detected) (Homo sapiens, UniProt Q8IXK0); details: protein PHC2; U3A cells
[16] = molecular target: proteins of U3A human fibrosarcoma cells (4462 proteins detected) (Homo sapiens, UniProt Q8N9N2); details: protein ASCC1; U3A cells
[17] = molecular target: proteins of U3A human fibrosarcoma cells (4462 proteins detected) (Homo sapiens, UniProt Q8NBN3); details: protein TMEM87A; U3A cells
[18] = molecular target: proteins of U3A human fibrosarcoma cells (4462 proteins detected) (Homo sapiens, UniProt Q8NCA5); details: protein FAM98A; U3A cells
[19] = molecular target: proteins of U3A human fibrosarcoma cells (4462 proteins detected) (Homo sapiens, UniProt Q96T60); details: protein PNKP; U3A, 10 μM, 2 h
[20] = molecular target: proteins of U3A human fibrosarcoma cells (4462 proteins detected) (Homo sapiens, UniProt Q9BVS5); details: protein TRMT61B; soluble abundance after heat, U3A cells
[21] = molecular target: proteins of U3A human fibrosarcoma cells (4462 proteins detected) (Homo sapiens, UniProt Q9BYM8); details: protein RBCK1; U3A, 10 μM, 2 h
[22] = molecular target: proteins of U3A human fibrosarcoma cells (4462 proteins detected) (Homo sapiens, UniProt Q9BYN8); details: protein MRPS26; soluble abundance after heat, U3A cells
[23] = molecular target: proteins of U3A human fibrosarcoma cells (4462 proteins detected) (Homo sapiens, UniProt Q9H871); details: protein RMND5A; U3A cells
Sequence of proteins of U3A human fibrosarcoma cells (4462 proteins detected) (Homo sapiens, UniProt Q9H871) (Q9H871 whole entry): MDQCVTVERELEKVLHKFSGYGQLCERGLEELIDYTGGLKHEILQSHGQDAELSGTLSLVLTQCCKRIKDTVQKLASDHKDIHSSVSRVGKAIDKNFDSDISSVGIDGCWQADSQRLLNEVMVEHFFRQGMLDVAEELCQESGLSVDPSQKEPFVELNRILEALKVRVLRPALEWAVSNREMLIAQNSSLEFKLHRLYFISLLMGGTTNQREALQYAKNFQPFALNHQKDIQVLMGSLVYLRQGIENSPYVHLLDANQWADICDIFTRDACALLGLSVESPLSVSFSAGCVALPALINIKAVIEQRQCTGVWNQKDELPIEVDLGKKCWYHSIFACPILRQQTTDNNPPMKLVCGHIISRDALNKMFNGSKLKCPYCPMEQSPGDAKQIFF

[24] = molecular target: proteins of U3A human fibrosarcoma cells (4462 proteins detected) (Homo sapiens, UniProt Q9NR28); details: protein DIABLO; U3A cells
[25] = molecular target: proteins of U3A human fibrosarcoma cells (4462 proteins detected) (Homo sapiens, UniProt Q9NZT2); details: protein OGFR, U3A cells
[26] = molecular target: proteins of U3A human fibrosarcoma cells (4462 proteins detected) (Homo sapiens, UniProt Q9UIJ7); details: protein AK3; U3A cells
[27] = test system: proteins of U3A human fibrosarcoma cells (4462 proteins detected)

`CCc1nc(N)nc(N)c1-c1ccc(Cl)cc1` [pyrimethamine] was tested, and the “Log2 (PYR/DMSO)” value [1] was -0.03, the “Log2 (PYR/DMSO)” value [2] was 0.14 and the “Log2 (PYR/DMSO)” value [3] was 0.16. The “Log2 (PYR/DMSO)” value [4] was 0.15, the “Log2 (PYR/DMSO)” value [5] was -0.04 and the “Log2 (PYR/DMSO)” value [6] was -0.05. The “Log2 (PYR/DMSO)” value [7] was -0.05, the “Log2 (PYR/DMSO)” value [8] was -0.04 and the “Log2 (PYR/DMSO), RFC4” value [9] was 0.27. The “Log2 (PYR/DMSO)” value [10] was 0.15, the “Log2 (PYR/DMSO)” value [11] was 0.13 and the “Log2 (PYR/DMSO)” value [12] was -0.04. The “Log2 (PYR/DMSO)” value [13] was 0.15, the “Log2 (PYR/DMSO)” value [14] was -0.04 and the “Log2 (PYR/DMSO)” value [15] was 0.16. For the same molecule, the “Log2 (PYR/DMSO)” value [16] was 0.19, the “Log2 (PYR/DMSO)” value [17] was 0.19 and the “Log2 (PYR/DMSO)” value [18] was 0.24. The “Log2 (PYR/DMSO), PNKP” value [19] was -0.22, the “Log2 (PYR/DMSO)” value [20] was 0.13 and the “Log2 (PYR/DMSO), RBCK1” value [21] was -0.16. The “Log2 (PYR/DMSO)” value [22] was 0.14, the “Log2 (PYR/DMSO)” value [23] was 0.21 and the “Log2 (PYR/DMSO)” value [24] was 0.16. The “Log2 (PYR/DMSO)” value [25] was -0.04, the “Log2 (PYR/DMSO)” value [26] was 0.16 and the “Log2 (PYR/DMSO)” value ([27]; protein AGO2, AGO1, AGO3, AGO4, soluble abundance after heat, U3A cells) was 0.14. For the same molecule, the “Log2 (PYR/DMSO), ANXA8L1; ANXA8L2; ANXA8” value ([27]; protein ANXA8L1, ANXA8L2, ANXA8, U3A, 10 μM, 2 h) was -0.40, the “Log2 (PYR/DMSO), ATP2A2; ATP2A1; ATP2A3” value ([27]; protein ATP2A2, ATP2A1, ATP2A3, U3A, 10 μM, 2 h) was 0.28 and the “Log2 (PYR/DMSO)” value ([27]; protein CUX1, U3A cells) was 0.20. For the same molecule, the “Log2 (PYR/DMSO)” value ([27]; protein DHRS4, DHRS4L1, soluble abundance after heat, U3A cells) was 0.13, the “Log2 (PYR/DMSO)” value ([27]; protein EIF3C, EIF3CL, U3A cells) was 0.18 and the “Log2 (PYR/DMSO)” value ([27]; protein Em:AP000351.3, GSTT2, GSTT2B, U3A cells) was -0.05. For the same molecule, the “Log2 (PYR/DMSO)” value ([27]; protein H2AFX, HIST1H2AJ, HIST1H2AH, H2AFJ, HIST2H2AC, HIST1H2AC, HIST3H2A, HIST2H2AA3, HIST1H2AD, HIST1H2AG, HIST1H2AB, HIST1H2AA, HIST2H2AB, U3A cells) was 0.19, the “Log2 (PYR/DMSO)” value ([27]; protein HIST2H3A, HIST3H3, HIST1H3A, H3F3B, H3F3A, HIST2H3PS2, H3F3C, U3A cells) was 0.22 and the “Log2 (PYR/DMSO)” value ([27]; protein HPCAL1, HPCA, soluble abundance after heat, U3A cells) was 0.15. The “Log2 (PYR/DMSO)” value ([27]; protein KHDRBS1, KHDRBS2, soluble abundance after heat, U3A cells) was 0.14, the “Log2 (PYR/DMSO), KIAA2012; SPEG” value ([27]; protein KIAA2012, SPEG, U3A, 10 μM, 2 h) was 0.26 and the “Log2 (PYR/DMSO)” value ([27]; protein MOCS2, U3A cells) was -0.04. The “Log2 (PYR/DMSO)” value ([27]; protein POLR2J3, POLR2J, POLR2J2, U3A cells) was -0.04, the “Log2 (PYR/DMSO)” value ([27]; protein POM121C, POM121, POMZP3, soluble abundance after heat, U3A cells) was 0.14 and the “Log2 (PYR/DMSO)” value ([27]; protein PPP1R2, PPP1R2P3, U3A cells) was -0.04. For the same molecule, the “Log2 (PYR/DMSO), PRSS1; PRSS3P2; PRSS2” value ([27]; protein PRSS1, PRSS3P2, PRSS2, U3A, 10 μM, 2 h) was -0.20, the “Log2 (PYR/DMSO), SLC25A5; SLC25A4; SLC25A6; SLC25A31” value ([27]; protein SLC25A5, SLC25A4, SLC25A6, SLC25A31, U3A, 10 μM, 2 h) was 0.31 and the “Log2 (PYR/DMSO)” value ([27]; protein UBE2Q1, UBE2Q2, U3A cells) was 0.20.
